Laboratory results published in EP4775574A1, “FURAN RING-CONTAINING COMPOUND, PHARMACEUTICAL COMPOSITION THEREOF, AND USE THEREOF” (Wuhan Xirui Pharmaceutical Technology Co., Ltd, priority 2023, dated 2025).

Tests used:
Assay type in all cases: cell-based
Nav1.1 = Nav1.1 (Homo sapiens, UniProt P35498); experiment: Sodium channel selectivity test, patch-clamp, Nav1.1; settings: read-out: Nav1.1 Inhibition rate (%)
Excerpt: (§1) Test Example 3: Selectivity test of the compounds of the present disclosure on sodium channels • 1. Experimental objective: The effects of the compounds on the current of the voltage-gated sodium channel (NaV) subtypes 1.1-1.7 were detected by patch-clamp technique • 2. Experimental materials and instruments • 2.1 Cell lines: CHO/HEK293 cell lines stably expressing Nav1.1-1.7 sodium channels, constructed in-house by the laboratory of Beijing ICE Bioscience Co., Ltd., (Reference: Jarvis MF, Honore P, Shieh CC, Chapman M, Joshi S, Zhang XF, Kort M, Carroll W, Marron B, Atkinson R, Thomas J, Liu D, Krambis M, Liu Y, McGaraughty S, Chu K, Roeloffs R, Zhong C, Mikusa JP, Hernandez G, Gauvin D, Wade C, Zhu C, Pai M, Scanio M, Shi L, Drizin I, Gregg R, Matulenko M, Hakeem A, Gross M, Johnson M, Marsh K, Wagoner PK, Sullivan JP, Faltynek CR, Krafte DS. A-803467, a potent and selective Nav1.8 sodium channel blocker, attenuates neuropathic and inflammatory pain in the rat. Proc Natl Acad Sci U S A. 2007 May 15;104(20):8520-5. doi: 10.1073/pnas.0611364104. Epub 2007 May 2. PMID: 17483457; PMCID: PMC1895982.), gene information Nav1.1: NM_006920; Nav1.2: NM_001040142; Nav1.3: NM_006922; Nav1.4: NM_000334; Nav1.5: NM198056; Nav1.6: NM014191; Nav1.7: […]. • 2.2 Compounds: Dissolved in DMSO, with sample concentration prepared at 30 µM. • 3. Experimental methods • 3.1 Cell culture • (1) Maintenance medium: CHO cells were cultured in HAM'S/F-12 medium containing 10% fetal bovine serum, 100 µg/mL Zeocin, and 10 µg/mL Blasticidin, under conditions of 37°C incubation temperature and 5% carbon dioxide concentration. HEK-293 cells were cultured in DMEM medium containing 10% fetal bovine serum and 800 µg/mL G418; the culture temperature was 37°C, and the carbon dioxide concentration was 5%. • (2) Cell passage: The old medium was removed, and the cells were washed once with PBS, then 1 mL of 0.25%-Trypsin-EDTA solution was added and incubated at 37°C for approximately 1.5 min. When the cells were detached from the bottom of the dish, about 5 mL of preheated complete medium at 37°C was added. […]

Nav1.3 = Nav1.3 (Homo sapiens, UniProt Q9NY46); experiment: Sodium channel selectivity test, patch-clamp, Nav1.3; settings: read-out: Nav1.3 Inhibition rate (%)
Excerpt: as §1

Nav1.7 = Nav1.7 (Homo sapiens, UniProt Q15858); experiment: Sodium channel selectivity test, patch-clamp, Nav1.7; settings: read-out: Nav1.7 Inhibition rate (%)
Excerpt: as §1

Nav1.8 sodium channel = target: T1, Nav1.8 sodium channel (Homo sapiens, UniProt Q9Y5Y9); experiment: Blocking activity against sodium channel 1.8 (Nav1.8), whole-cell patch-clamp, inhibition rate; settings: CHO cell line stably expressing Nav1.8; patch-clamp; test concentration not given
T1 construct: host or cells: CHO
Method: Experimental objective: The effects of the compounds on the current of the voltage-gated sodium channel (NaV) 1.8 subtype were detected by patch-clamp technique • 2. […] When the cells were detached from the bottom of the dish, about 5 mL of preheated complete medium at 37°C was added. The cell suspension was gently pipetted up and down to separate the aggregated cells. The cell suspension was transferred to a sterile centrifuge tube and centrifuged at 1000 rpm for 5 min to collect the cells. […] First, the voltage was stepped from -130 mV to -10 mV in 10 mV increments for 5 s, and then a 0 mV depolarizing pulse was applied to obtain the half-inactivation voltage (Vhalf). The resting state and half-inactivated state of the sodium current were detected by using a double-pulse protocol. First, the first depolarizing pulse (TP1) was applied to 0 mV for 50 ms to detect the sodium current in the resting state. Then, the voltage was adjusted to Vhalf and maintained for 5 s, followed by restoration of the voltage to -120 mV and maintenance for 20 ms, after which the second depolarizing pulse (TP2) was applied to 0 mV for 50 ms to detect the sodium current in the half-inactivated state. Finally, the voltage was restored to the clamping voltage of -120 mV. Data were repeatedly collected every […] to observe the effect of the drug on the peak values of sodium currents in the two different states. Experimental data were collected by the EPC 10 amplifier (HEKA) and stored in the PatchMaster (HEKA) software. • (2) During patch clamp operation, capillary glass tubes were first pulled into recording electrodes using a microelectrode puller, then the electrodes filled with intracellular solution were installed into the microelectrode holder. Under an inverted microscope, the micromanipulator was used to bring the recording electrode into contact with the cell, and negative pressure suction was applied to form a GΩ seal. At this time, fast capacitance compensation was performed, and then negative pressure was continuously applied to rupture the cell membrane and form the whole-cell recording mode. Finally, slow capacitance compensation was performed, and related parameters were recorded. Leak compensation was not applied. • (3) When the sodium current of whole-cell recording became stable, drug administration was started, and each drug concentration was applied for 5 min (or until the current became stable) before the next concentration was tested. The coverslip coated with cells was placed in the recording bath under an inverted microscope, and the blank control external solution and the test compound working solution were perfused through the recording bath in sequence from low concentration to high concentration by gravity, thereby acting on the cells, while a peristaltic pump was used for liquid exchange during recording. The current detected in the external solution without compounds for each cell was used as its own control group. Each concentration was independently tested twice. All electrophysiological experiments were conducted at room temperature.
First, the current after the effect of each drug concentration and the blank control current were normalized, then the inhibition rate corresponding to each drug concentration was calculated, that is, (1-Icompound /Icontrol), and the mean, standard deviation (SD), and standard error (SE) of the inhibition rate for each concentration were calculated, and the data were expressed as mean ± SE.

Nav1.3, sequence (Q9NY46 1-2000 isoform Q9NY46-3): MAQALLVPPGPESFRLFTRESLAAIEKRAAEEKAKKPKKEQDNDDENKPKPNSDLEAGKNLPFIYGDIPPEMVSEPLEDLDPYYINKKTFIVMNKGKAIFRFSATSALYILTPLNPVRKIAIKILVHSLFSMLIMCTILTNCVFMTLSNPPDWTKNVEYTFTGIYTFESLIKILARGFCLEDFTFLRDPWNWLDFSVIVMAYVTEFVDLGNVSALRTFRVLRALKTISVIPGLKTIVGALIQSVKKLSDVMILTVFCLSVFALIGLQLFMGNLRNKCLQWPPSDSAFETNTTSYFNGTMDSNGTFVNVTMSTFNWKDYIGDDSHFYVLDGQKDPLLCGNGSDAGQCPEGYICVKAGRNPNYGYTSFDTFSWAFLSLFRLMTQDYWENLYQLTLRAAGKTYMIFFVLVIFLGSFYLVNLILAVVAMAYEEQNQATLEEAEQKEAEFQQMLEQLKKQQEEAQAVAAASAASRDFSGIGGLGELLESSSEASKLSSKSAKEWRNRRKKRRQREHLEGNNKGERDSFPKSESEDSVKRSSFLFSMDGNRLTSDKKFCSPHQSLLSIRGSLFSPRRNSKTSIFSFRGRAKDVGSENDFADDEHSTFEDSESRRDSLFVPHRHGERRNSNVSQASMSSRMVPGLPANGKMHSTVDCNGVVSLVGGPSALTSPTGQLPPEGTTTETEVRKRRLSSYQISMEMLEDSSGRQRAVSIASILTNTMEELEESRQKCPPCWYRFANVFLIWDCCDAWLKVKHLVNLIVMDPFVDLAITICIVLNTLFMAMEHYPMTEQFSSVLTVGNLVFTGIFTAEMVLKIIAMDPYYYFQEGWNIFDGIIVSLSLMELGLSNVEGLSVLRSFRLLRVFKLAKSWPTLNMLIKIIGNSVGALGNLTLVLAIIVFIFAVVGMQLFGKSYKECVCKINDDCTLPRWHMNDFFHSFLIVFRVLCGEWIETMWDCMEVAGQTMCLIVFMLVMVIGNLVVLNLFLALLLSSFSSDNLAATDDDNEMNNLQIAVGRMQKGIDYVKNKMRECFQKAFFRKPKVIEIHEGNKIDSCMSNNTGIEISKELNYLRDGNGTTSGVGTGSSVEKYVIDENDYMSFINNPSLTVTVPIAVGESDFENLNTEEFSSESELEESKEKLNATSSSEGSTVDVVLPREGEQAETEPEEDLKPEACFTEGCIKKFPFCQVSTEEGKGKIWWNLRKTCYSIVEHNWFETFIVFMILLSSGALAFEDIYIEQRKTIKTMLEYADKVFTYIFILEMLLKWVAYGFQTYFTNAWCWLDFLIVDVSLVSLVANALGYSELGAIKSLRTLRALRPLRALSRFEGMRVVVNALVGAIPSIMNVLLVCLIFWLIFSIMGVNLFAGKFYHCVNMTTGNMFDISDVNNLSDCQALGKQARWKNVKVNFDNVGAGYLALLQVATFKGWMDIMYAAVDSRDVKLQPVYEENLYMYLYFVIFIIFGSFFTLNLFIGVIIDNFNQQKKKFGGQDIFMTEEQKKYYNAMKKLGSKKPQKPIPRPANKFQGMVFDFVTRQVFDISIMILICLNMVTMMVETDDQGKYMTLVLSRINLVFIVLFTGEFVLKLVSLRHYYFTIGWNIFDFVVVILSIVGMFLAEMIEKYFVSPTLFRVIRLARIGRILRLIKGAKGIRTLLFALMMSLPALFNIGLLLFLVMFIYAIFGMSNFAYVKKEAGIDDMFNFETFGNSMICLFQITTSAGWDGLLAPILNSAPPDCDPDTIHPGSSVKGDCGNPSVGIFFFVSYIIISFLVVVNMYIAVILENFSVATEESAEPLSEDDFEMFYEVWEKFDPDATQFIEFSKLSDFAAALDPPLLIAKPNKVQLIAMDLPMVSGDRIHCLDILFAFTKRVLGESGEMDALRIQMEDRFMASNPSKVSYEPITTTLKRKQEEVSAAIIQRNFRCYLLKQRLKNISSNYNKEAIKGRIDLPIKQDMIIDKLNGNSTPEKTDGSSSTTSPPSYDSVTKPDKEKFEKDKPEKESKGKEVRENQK
T1 sequence (Q9Y5Y9 whole entry): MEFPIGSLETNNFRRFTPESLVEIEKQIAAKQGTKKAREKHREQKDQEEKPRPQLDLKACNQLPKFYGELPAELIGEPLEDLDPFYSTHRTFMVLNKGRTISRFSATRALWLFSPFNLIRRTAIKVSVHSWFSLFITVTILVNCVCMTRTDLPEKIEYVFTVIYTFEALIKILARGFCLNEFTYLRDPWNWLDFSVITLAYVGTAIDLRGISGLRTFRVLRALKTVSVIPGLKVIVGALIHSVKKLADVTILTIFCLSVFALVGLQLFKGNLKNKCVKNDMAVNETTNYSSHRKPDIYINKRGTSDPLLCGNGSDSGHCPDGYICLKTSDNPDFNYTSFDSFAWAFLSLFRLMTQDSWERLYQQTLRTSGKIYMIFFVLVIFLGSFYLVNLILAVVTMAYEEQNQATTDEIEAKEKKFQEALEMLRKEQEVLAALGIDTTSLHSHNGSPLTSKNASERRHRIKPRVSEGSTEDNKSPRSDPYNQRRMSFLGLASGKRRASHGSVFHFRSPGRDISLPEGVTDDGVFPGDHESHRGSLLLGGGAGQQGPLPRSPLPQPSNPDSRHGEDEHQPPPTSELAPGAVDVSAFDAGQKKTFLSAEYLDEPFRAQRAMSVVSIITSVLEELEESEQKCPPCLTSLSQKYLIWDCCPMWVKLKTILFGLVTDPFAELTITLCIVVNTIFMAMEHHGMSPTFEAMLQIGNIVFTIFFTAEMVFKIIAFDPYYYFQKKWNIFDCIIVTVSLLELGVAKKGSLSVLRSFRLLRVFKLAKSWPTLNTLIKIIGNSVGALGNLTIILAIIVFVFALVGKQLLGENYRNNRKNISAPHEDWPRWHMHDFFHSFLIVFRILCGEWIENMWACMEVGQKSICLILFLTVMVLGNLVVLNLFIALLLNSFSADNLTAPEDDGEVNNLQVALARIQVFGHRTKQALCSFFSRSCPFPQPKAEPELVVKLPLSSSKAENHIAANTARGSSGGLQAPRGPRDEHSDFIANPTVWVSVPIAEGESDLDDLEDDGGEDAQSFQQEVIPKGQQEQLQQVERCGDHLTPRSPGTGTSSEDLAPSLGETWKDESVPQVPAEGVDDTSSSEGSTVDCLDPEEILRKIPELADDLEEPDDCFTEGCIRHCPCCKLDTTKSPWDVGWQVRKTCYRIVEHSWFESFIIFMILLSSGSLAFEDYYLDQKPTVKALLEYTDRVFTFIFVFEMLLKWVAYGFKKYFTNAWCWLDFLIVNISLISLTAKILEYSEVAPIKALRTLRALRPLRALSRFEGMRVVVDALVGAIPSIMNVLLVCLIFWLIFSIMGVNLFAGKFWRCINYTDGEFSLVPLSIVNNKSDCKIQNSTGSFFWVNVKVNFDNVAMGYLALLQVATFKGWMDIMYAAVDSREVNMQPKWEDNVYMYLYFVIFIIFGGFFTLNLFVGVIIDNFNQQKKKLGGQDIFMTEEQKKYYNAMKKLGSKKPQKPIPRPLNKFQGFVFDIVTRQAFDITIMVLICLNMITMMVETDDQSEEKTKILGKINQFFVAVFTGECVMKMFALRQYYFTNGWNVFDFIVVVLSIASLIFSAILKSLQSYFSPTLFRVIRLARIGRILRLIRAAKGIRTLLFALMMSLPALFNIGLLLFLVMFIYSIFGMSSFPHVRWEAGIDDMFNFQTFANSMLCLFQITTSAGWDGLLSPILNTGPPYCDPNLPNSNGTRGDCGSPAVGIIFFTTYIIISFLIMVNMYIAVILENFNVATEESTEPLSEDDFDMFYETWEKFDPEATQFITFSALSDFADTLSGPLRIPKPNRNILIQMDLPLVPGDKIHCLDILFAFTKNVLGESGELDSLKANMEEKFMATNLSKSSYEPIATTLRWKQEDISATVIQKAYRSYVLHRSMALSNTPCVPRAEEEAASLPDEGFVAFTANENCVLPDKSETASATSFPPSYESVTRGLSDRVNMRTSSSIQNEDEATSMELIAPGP

Work on C[C@H]1[C@@H](c2ccc(F)c(F)c2OC2COC2)[C@H](C(=O)Nc2ccc(F)c(C(=N)NO)c2)O[C@@]1(C)C(F)(F)F [Example 11] yielded an inhibition at 30 µM (Nav1.1) of 1.96%, an inhibition at 30 µM (Nav1.3) of 21.7% and an inhibition at 30 µM (Nav1.7) of 14.8%. For the same molecule, the “Inhibition rate (%)” value (Nav1.8 sodium channel) was 87.35%.

COc1c([C@H]2[C@H](C(=O)Nc3ccnc(C(N)=O)c3)O[C@@](C)(C(F)(F)F)[C@H]2C)ccc(F)c1F [Reference compound, reference compound] was tested, and the inhibition at 30 µM (Nav1.1) was 57.7%, the inhibition at 30 µM (Nav1.3) was 63.4% and the inhibition at 30 µM (Nav1.7) was 11.1%. The “Inhibition rate (%)” value (Nav1.8 sodium channel) was 94.49%.

In the case of COCCOc1c([C@H]2[C@H](C(=O)Nc3ccc(F)c(C(=N)NO)c3)O[C@@](C)(C(F)(F)F)[C@H]2C)ccc(F)c1F [Example 10], the inhibition at 30 µM (Nav1.1) is reported as 28.4%, the inhibition at 30 µM (Nav1.3) is reported as 28.6% and the inhibition at 30 µM (Nav1.7) is reported as 20.8%. The “Inhibition rate (%)” value (Nav1.8 sodium channel) was 99.65%.
